Test results reported in patent US8227207B2, “Bioactive peptides derived from the proteins of egg white by means of enzymatic hydrolysis” (Consejo Superior de Investigaciones Cientifcas, priority 2004, dated 2012).
“Also recorded” adds a separate entry of the source. Residues, ends and D or L forms follow the SMILES beside them.

Legend:
[1] = target: T1, angiotensin converting enzyme (ACE, EC 3.4.15.1) (Oryctolagus cuniculus, UniProt P12822); assay type: biochemical; details: for IC50: read-out: ACEI activity IC50, synthetic peptides; for ACEI activity in vitro (in words): peptides
T1 sequence (P12822 34-1310): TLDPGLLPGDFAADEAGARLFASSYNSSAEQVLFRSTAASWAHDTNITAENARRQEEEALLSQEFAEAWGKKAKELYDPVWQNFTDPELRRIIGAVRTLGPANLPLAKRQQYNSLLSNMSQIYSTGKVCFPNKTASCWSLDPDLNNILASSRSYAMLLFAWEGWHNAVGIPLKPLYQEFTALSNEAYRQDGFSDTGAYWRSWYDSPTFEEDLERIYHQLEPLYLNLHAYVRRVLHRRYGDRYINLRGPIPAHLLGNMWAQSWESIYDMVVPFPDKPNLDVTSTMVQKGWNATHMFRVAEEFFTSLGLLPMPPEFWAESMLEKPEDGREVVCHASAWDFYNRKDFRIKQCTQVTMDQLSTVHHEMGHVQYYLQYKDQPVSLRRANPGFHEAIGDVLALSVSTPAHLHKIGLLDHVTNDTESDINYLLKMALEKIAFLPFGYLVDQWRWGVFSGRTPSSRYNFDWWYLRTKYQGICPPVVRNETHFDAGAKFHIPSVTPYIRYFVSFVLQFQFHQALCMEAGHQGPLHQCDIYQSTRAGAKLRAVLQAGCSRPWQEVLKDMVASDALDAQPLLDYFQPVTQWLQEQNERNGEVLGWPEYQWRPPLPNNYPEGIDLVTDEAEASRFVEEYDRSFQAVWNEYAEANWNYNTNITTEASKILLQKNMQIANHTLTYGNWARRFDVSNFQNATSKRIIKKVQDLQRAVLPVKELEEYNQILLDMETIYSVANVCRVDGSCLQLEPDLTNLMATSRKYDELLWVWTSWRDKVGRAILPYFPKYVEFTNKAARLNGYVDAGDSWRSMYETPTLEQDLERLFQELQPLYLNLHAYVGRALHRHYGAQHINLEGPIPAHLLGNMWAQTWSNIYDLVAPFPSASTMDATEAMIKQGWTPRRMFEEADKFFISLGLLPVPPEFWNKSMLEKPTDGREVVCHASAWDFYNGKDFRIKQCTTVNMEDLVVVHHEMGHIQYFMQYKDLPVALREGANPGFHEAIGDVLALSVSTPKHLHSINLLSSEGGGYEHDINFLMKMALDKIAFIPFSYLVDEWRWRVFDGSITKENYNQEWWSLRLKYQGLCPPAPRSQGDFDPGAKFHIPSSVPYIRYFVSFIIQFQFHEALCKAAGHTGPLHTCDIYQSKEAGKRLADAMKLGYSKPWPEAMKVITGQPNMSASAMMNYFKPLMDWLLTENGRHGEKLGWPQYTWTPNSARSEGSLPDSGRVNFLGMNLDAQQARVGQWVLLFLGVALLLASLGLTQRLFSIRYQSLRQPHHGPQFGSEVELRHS
Method: The inhibitory activity of the angiotensin converting enzyme (ACE) is measured in vitro according to the method of D. W. Cushman and H. S. Cheung (Spectrophotometric assay and properties of the angiotensin-converting enzyme of rabbit lung. Biochemical Pharmacology, 1971, 20: 1637-1648), later on modified by Y. K. Kim, S. Yoon, D. Y. Yu, B. Lönnerdal and B. H. Cheung (Novel angiotensin-I-converting enzyme inhibitory peptides derived from recombinant human αs1-casein expressed in Escherichia coli, Journal of Dairy Research 1999, 66, 431-439).
The substrate hippuryl histidyl leucine (HHL, Sigma Chemicals Co., St. Louis, Mo., USA) is dissolved in a 0.1 M borate buffer with 0.3 M NaCl pH 8.3 to obtain a final concentration of 5 mM. To 100 μl of substrate are added 40 μl of each of the samples whose ACEI activity it is wished to determine. The ACE enzyme (EC 3.4.15.1, Sigma) is added, dissolved in 50% glycerol and diluted 1/10 in bidistilled water at the moment of conducting the assay. The reaction is carried out at 37° C. for 30 minutes in a water-bath. The enzyme is deactivated by lowering the pH with 150 μl of 1 N HCl. The hippuric acid formed is extracted with 1000 μl of ethyl acetate. Following vortex stirring for 20 seconds, it is centrifuged at 4000 rpm for 10 minutes at room temperature. 750 μl of the organic phase are taken and evaporated by heating at 95° C. for 10 minutes. The hippuric acid residue is redissolved in 800 μl of bidistilled water and, following stirring for 20 seconds, the absorbency at 228 nm is measured in a Dur-70 spectrophotometer from Beckman Instruments, Inc., Fullerton, USA.
In order to calculate the percentage of ACEI activity, the following formula is used
The blank is used for correcting the background absorbency. This contains substrate, enzyme and 20 μl of bidistilled water in place of the sample, and the reaction is halted at zero time. The control implies a hundred percent of the enzymatic action on the substrate in the absence of inhibitors and contains 20 μl of water in place of the sample and is incubated the same time as the sample.
The results are presented as the IC50 (μM or μg/ml) or concentration at which 50% of the enzyme's activity is inhibited. The concentration of protein is determined by means of the bicinchonomic acid (BCA) assay (Pierce, Rockford, Ill., USA) using bovine seroalbumin as reference.

[2] = system: spontaneously hypertensive rats (SHR); assay: Antihypertensive activity: systolic arterial pressure (tail cuff) in spontaneously hypertensive rats; assay type: in vivo, rat; details: for time of maximum drop in SAP after administration: intragastric probe; for drop in systolic arterial pressure (SAP) / anti-hypertensive activity (in words): single administration by intragastric probe
Method: (§1) The effect is studied of various identified peptides and of some products containing them (for example egg white hydrolysed with pepsin for 3 hours and the fraction of it less than 3000 Da) on the arterial pressure of spontaneously hypertensive rats (SHR) and Wistar-Kyoto rats (WKY) which are the normotense controls for the SHR.
(§2) This study is conducted with SHR (10) and WKY of 17-24 weeks old and weight between 300 and 350 g, coming from Charles River Laboratories España, S. A. The rats are kept in cages of five by five and maintained at a stable temperature of 25° C. with light-dark cycles of 12 hours, ingesting freely available water and food. In order to carry out the measurement of systolic arterial pressure (SAP) “tail cuff” equipment is used (Le5001, Letica) which automatically provides a digital value of the SAP and records and facilitates the cardiac frequency of the animals. Various measurements are made and the average of all of them is obtained in order to achieve a reliable value of the SAP. Before positioning the cuff and transducer in the tail of the rats, the rats are exposed to a temperature of close to 30° C. in order to facilitate dilation of the caudal artery. Also, in order to ensure the reliability of the measurement, the animals are made to get used to the procedure for two weeks prior to conducting each assay in question.
(§3) The administration of the products to be assayed is done by means of an intragastric probe in a time margin of between 9 and 10 o'clock in the morning. The SHR used for the study had SAP values of between 230 and 280 mm Hg. The WKY used for the study at that moment had SAP values of between 160 and 200 mm Hg. Measurements of the SAP were taken from the animals periodically, every 2 hours, up to 8 hours post-administration of the products to be assayed; in addition, a SAP measurement was taken 24 hours after the administration of those products. As negative control (in order to establish the circadian variation of the SAP in probed rats) the measurements of the SAP obtained in rats which had been administered 1 ml of water by means of intragastric probe were used. As positive control, the measurements of the SAP obtained in rats which had been administered 50 mg/kg of Captopril (prototype ACEI drug) by means of intragastric probe were used. This dose of Captopril was administered to each rat in a volume of 1 ml. In order to establish the effect of the unhydrolysed egg white on the arterial pressure of the animals, similar assays to those described above were conducted, in which the animals were treated by the same procedure with 200 mg/kg of previously freeze-dried egg white (reference).
The results obtained are grouped and the mean±the standard error of measurement (SEM) is obtained for a minimum of 9 homogenous assays. The data of the treated animals are always compared with the data deemed to be a negative control. In order to compare them and obtain the statistical significance, Student's t-test for unpaired data is used and the difference for values of p<0.05 is considered significant.

Wistar-Kyoto rats (WKY) = assay: Systolic arterial pressure (tail cuff) in normotense Wistar-Kyoto rats; assay type: in vivo, rat; details: highest dose used, intragastric probe
Method: as §1, §2, §3
The results obtained are grouped and the mean±the standard error of measurement (SEM) is obtained for a minimum of 9 homogenous assays. […]

CC[C@H](C)[C@H](NC(=O)[C@H](CCC(N)=O)NC(=O)[C@@H](N)Cc1ccc(O)cc1)C(=O)NCC(=O)N[C@@H](CC(C)C)C(=O)O [SEQ. ID. N^o 1, YQIGL] (H-YQIGL-OH; N-terminus and C-terminus assumed)
IC50 [1]: 174 µM

CC[C@H](C)[C@H](N)C(=O)N[C@H](C(=O)N[C@@H](Cc1ccccc1)C(=O)O)C(C)C [SEQ. ID. N^o 2, IVF]
ACEI activity in vitro (in words) [1]: potent ACEI activity
time of maximum drop in SAP after administration [2]: 6 h
drop in systolic arterial pressure (SAP) / anti-hypertensive activity (in words) [2]: possess anti-hypertensive activity; also recorded: significant dose-dependent drop in the SAP; also recorded: clear and pronounced anti-hypertensive effect; also recorded: display anti-hypertensive activity
change in SAP in normotense rats (in words) (Wistar-Kyoto rats (WKY)): not in normotensed Wistar-Kyoto rats; also recorded: none of these compounds modifies the SAP

CC(C)C[C@H](NC(=O)[C@H](Cc1ccccc1)NC(=O)[C@@H]1CCCN1C(=O)[C@H](Cc1c[nH]cn1)NC(=O)[C@H](CC(=O)O)NC(=O)[C@H](C)NC(=O)[C@@H](N)CCCNC(=N)N)C(=O)O [SEQ. ID. N^o 3, RADHPFL] (H-RADHPFL-OH; N-terminus and C-terminus assumed)
ACEI activity in vitro (in words) [1]: potent ACEI activity
IC50 [1]: 6.2 µM
time of maximum drop in SAP after administration [2]: 6 h
drop in systolic arterial pressure (SAP) / anti-hypertensive activity (in words) [2]: possess anti-hypertensive activity; also recorded: significant dose-dependent drop in the SAP; also recorded: clear and pronounced anti-hypertensive effect; also recorded: display anti-hypertensive activity
change in SAP in normotense rats (in words) (Wistar-Kyoto rats (WKY)): not in normotensed Wistar-Kyoto rats; also recorded: none of these compounds modifies the SAP

CC[C@H](C)[C@H](NC(=O)[C@H](CC(=O)O)NC(=O)[C@@H](N)CCCNC(=N)N)C(=O)N[C@@H](CC(C)C)C(=O)N[C@@H](CC(N)=O)C(=O)N[C@@H](CCC(N)=O)C(=O)O [SEQ. ID. N^o 7, RDILNQ] (H-RDILNQ-OH)
IC50 [1]: 436 µM

CSCC[C@H](NC(=O)[C@H](C)NC(=O)[C@H](CC(C)C)NC(=O)[C@H](C)NC(=O)[C@@H](N)CO)C(=O)O [SEQ. ID. N^o 8, SALAM] (H-SALAM-OH)
IC50 [1]: 229 µM

CC[C@H](C)[C@H](NC(=O)[C@H](CO)NC(=O)[C@@H](N)CCC(=O)O)C(=O)N[C@H](C(=O)N[C@@H](CC(N)=O)C(=O)N[C@@H](Cc1ccccc1)C(=O)O)[C@@H](C)CC [SEQ. ID. N^o 12, ESIINF] (H-ESIINF-OH)
IC50 [1]: > 1000 µM

CC(C)C[C@H](NC(=O)CNC(=O)[C@H](CO)NC(=O)[C@@H](NC(=O)[C@H](CCC(=O)O)NC(=O)[C@H](CC(=O)O)NC(=O)[C@@H]1CCCN1C(=O)[C@H](CC(C)C)NC(=O)[C@H](CC(C)C)NC(=O)[C@@H](N)C(C)C)C(C)C)C(=O)O [SEQ. ID. N^o 13] (H-VLLPDEVSGL-OH)
IC50 [1]: > 1000 µM

CC[C@H](C)[C@H](NC(=O)[C@H](CC(C)C)NC(=O)[C@@H](N)CCC(=O)O)C(=O)N[C@@H](CC(N)=O)C(=O)O [SEQ. ID. N^o 14, ELIN] (H-ELIN-OH)
IC50 [1]: > 1000 µM

CC[C@H](C)[C@H](NC(=O)[C@@H]1CCCN1C(=O)[C@H](CCC(=O)O)NC(=O)[C@H](CC(C)C)NC(=O)CNC(=O)CNC(=O)[C@H](CCCNC(=N)N)NC(=O)[C@@H](N)Cc1ccc(O)cc1)C(=O)N[C@@H](CC(N)=O)C(=O)N[C@@H](Cc1ccccc1)C(=O)O [SEQ. ID. N^o 15] (H-YRGGLEPINF-OH)
IC50 [1]: > 1000 µM

B1: unhydrolysed ovalbumin: ovalbumin grade VI (99% purity) (Sigma), unhydrolysed (protein)
chain: GSIGAASMEFCFDVFKELKVHHANENIFYCPIAIMSALAMVYLGAKDSTRTQINKVVRFDKLPGFGDSIEAQCGTSVNVHSSLRDILNQITKPNDVYSFSLASRLYAEERYPILPEYLQCVKELYRGGLEPINFQTAADQARELINSWVESQTNGIIRNVLQPSSVDSQTAMVLVNAIVFKGLWEKAFKDEDTQAMPFRVTEQESKPVQMMYQIGLFRVASMASEKMKILELPFASGTMSMLVLLPDEVSGLEQLESIINFEKLTEWTSSNVMEERKIKVYLPRMKMEEKYNLTSVLMAMGITDVFSSSANLSGISSAESLKISQAVHAAHAEINEAGREVVGSAEAGVDAASVSEEFRADHPFLFCIKHIATNAVLFFGRCVSP
ACEI activity IC50 ([1]; protein concentration, product as such): > 750 µg/mL
